Experimental data from ChEMBL document CHEMBL4390695, “Veratric acid derivatives containing benzylidene-hydrazine moieties as promising tyrosinase inhibitors and free radical scavengers” (Bioorg Med Chem, 2019).
Calls of active or inactive are those of the source. The calls are words filed in the database; no cut-off is given here.

T1: Tyrosinase (Agaricus bisporus) (UniProt O42713)
T1 sequence (whole entry): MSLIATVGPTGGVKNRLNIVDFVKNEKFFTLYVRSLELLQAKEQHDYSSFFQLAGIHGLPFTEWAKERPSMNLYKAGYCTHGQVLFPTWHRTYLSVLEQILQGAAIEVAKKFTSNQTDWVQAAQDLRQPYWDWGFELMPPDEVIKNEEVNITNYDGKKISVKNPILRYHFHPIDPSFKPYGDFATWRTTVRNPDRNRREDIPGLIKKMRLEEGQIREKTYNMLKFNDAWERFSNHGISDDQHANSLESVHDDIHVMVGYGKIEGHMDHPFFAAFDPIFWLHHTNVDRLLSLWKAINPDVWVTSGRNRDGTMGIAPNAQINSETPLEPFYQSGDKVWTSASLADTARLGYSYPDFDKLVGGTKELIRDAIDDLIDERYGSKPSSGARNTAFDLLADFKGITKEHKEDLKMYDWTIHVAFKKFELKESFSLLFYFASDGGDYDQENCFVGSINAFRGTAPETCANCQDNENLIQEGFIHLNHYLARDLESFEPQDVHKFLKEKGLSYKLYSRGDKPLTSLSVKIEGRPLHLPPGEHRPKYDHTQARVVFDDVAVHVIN

T2: Tyrosinase (Agaricus bisporus, UniProt O42713)
T2 sequence (O42713 whole entry): T1 sequence (whole entry)

B1: Tyrosinase (Agaricus bisporus), O42713 (protein)
chain: T1 sequence (whole entry)

Target: T1, Tyrosinase (Agaricus bisporus)
Test: Competitive inhibition of mushroom tyrosinase assessed as reduction in dopachrome formation at 50 uM using L-DOPA as substrate preincubated for 20 mins followed by substrate addition by spectrophotometry based Lineweaver-Burk plot analysis
Conditions: not given

Row | Molecule | inhibition
1 | COc1ccc(C(=O)N/N=C/c2ccc(Cl)cc2)cc1OC | Active

Compound: COc1ccc(C(=O)N/N=C/c2ccc(Cl)cc2)cc1OC
Test: Competitive inhibition of mushroom tyrosinase assessed as reduction in dopachrome formation by measuring substrate Vmax at 50 uM using L-DOPA as substrate preincubated for 20 mins followed by substrate addition by spectrophotometry based Lineweaver-Burk plot analysis (reference value: […] mM/min)
Conditions: Agaricus bisporus

Row | Molecule | Vmax
2 | B1 | 0.15 mM/min

Target: T2, Tyrosinase
Test: Inhibition of mushroom tyrosinase assessed as reduction in dopachrome formation using L-DOPA as substrate preincubated for 20 mins followed by substrate addition by spectrophotometry
Conditions: not given

Row | Molecule | IC50
3 | COc1cc(/C=N/NC(=O)c2ccc(OC)c(OC)c2)ccc1O | > 50 µM
4 | COc1ccc(C(=O)N/N=C/c2ccc(N(C)C)cc2)cc1OC | > 50 µM
5 | COc1ccc(C(=O)N/N=C/c2ccc(Br)cc2)cc1OC | > 50 µM
6 | COc1ccc(C(=O)N/N=C/c2cccc([N+](=O)[O-])c2)cc1OC | > 50 µM
7 | COc1ccc(C(=O)N/N=C/c2ccc(O)cc2)cc1OC | > 50 µM
8 | COc1ccc(/C=N/NC(=O)c2ccc(OC)c(OC)c2)cc1OC | > 50 µM
9 | COc1ccc(C(=O)N/N=C/c2ccc(Cl)cc2)cc1OC | 19.7 µM
10 | COc1ccc(C(=O)N/N=C/c2ccc(O)cc2O)cc1OC | 31.5 µM
11 | CCOc1cc(/C=N/NC(=O)c2ccc(OC)c(OC)c2)ccc1O | > 50 µM
12 | COc1ccc(C(=O)N/N=C/c2cc(OC)c(OC)c(OC)c2)cc1OC | 37.4 µM
13 | COc1ccc(/C=N/NC(=O)c2ccc(OC)c(OC)c2)cc1 | > 50 µM
14 | COc1ccccc1/C=N/NC(=O)c1ccc(OC)c(OC)c1 | 35.2 µM
15 | COc1ccc(C(=O)N/N=C/c2ccc(OC(C)=O)c(OC)c2)cc1OC | 28.3 µM
16 | COc1ccc(C(=O)N/N=C/c2cccc(O)c2O)cc1OC | 20.6 µM
17 | COc1ccc(C(=O)N/N=C/c2ccc([N+](=O)[O-])cc2)cc1OC | > 50 µM
18 | COc1ccc(C(=O)N/N=C/c2cc(OC)c(O)c(OC)c2)cc1OC | > 50 µM

Compound: COc1ccc(C(=O)N/N=C/c2ccc(Cl)cc2)cc1OC
Test: Competitive inhibition of mushroom tyrosinase assessed as reduction in dopachrome formation by measuring substrate Km at 50 uM using L-DOPA as substrate preincubated for 20 mins followed by substrate addition by spectrophotometry based Lineweaver-Burk plot analysis (reference value: […] mM)
Conditions: Agaricus bisporus

Row | Molecule | Km
19 | B1 | 5.88 mM
